By IC50 is commonly meant the midpoint of a concentration-inhibition curve. The term EC50 denotes the midpoint of the concentration-response curve. By microsomal CLint is commonly meant the capacity of the preparation to metabolise the compound, expressed as a volume cleared per time. Lower therefore signals slow turnover.

Where two headings read alike, the source gives them in different places.

One data set addresses T1, DNA-PK (Homo sapiens, UniProt P78527).
T1 construct: purchased Invitrogen PR9107A
The experiment in a line: DNA-PK Assay for Biochemical Enzymatic Inhibition (ADP Glo Kinase assay). As to conditions: DNA-PK enzyme, Table 1. The essentials: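 Human DNA-PK (25 ng) preincubated 15 min with compounds (ten three-fold dilutions) in HEPES pH 7.5, MgCl2, KCl, calf thymus DNA buffer, then substrate 434.4 μM and ATP 64.4 μM (final) for 60 min at room temperature. ADP-Glo luminescence; percent inhibition fitted by four-parameter regression for IC50.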

Data set [1] deals with T2, DNA-PK phosphorylation at Serine 2056 (Homo sapiens, UniProt P78527).
T2 construct: FaDu cells were purchased from ATCC; host or cells: FaDu
The data set is described as follows: Cellular Assay for Inhibition of DNA-PK Phosphorylation at Serine 2056 in FaDu cells (sandwich ELISA, neocarzinostatin). The data set is classed as cell-based. As to conditions: pSer2056 DNA-PK, neocarzinostatin 1 μg/mL, Table 1. The essentials:
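FaDu cells pre-treated with compound (0.3% DMSO) for 1 h, then neocarzinostatin 1 μg/mL final added for 2 h to induce DSBs. Protein-normalised lysates read by sandwich ELISA for total and pSer2056 DNA-PK; % inhibition normalised between DMSO and NCS controls, IC50 from variable-slope log(inhibitor) fit.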
(In an ELISA, binding on a coated surface is turned into a signal by an enzyme label.)

Data set [2] deals with pDNA-PK induction in HCT116 tumour spheroids. The experiment in a line: Multicellular tumour spheroid + radiation, pDNA-PK (ser2056) inhibition, immunohistochemical endpoint, HCT116. The format is cell-based. As to conditions: Homo sapiens, 20 Gy, 20% O2. The essentials: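 HCT116 spheroids (~0.5 mm) in MEM/10% FBS, 20% O2, 37° C., pre-incubated 1 h with compound (10 or 5 μM down to 3.5 nM), irradiated 20 Gy, then 2 h further with compound. Cryosections immunostained for pDNA-PK ser2056; EC50 is concentration halving radiation-induced pDNA-PK.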

Data set [3] deals with pDNA-PK induction in FaDU tumour spheroids. The data set is described as follows: Multicellular tumour spheroid + radiation, pDNA-PK (ser2056) inhibition, immunohistochemical endpoint, FaDU. The data set is classed as cell-based. As to conditions: Homo sapiens, 20 Gy. As for the experimental part:
Multicellular tumour spheroids determination of compound inhibition of pDNA-PK induction following radiation. Tumour spheroids were grown to approximately 0.5 mm in diameter and irradiated with 20 Gy in combination with inhibitor test compounds to determine their potency. Inhibitor concentration for 50% reduction in pDNA-PK induction (IC50) was determined via immunohistochemical staining in spheroid cryosections taken 2 hours following radiation. For cell survival endpoint 8 Gy radiation was used and 3 hours following radiation spheroids were dissociated, counted and plated for colony forming endpoint.
Spheroid+radiation pDNA-PK. Radiation: 20 Gy. Drug: serial dilution 5 or 10 μM down to 3.5 nM (11 wells). Spheroids: 3-6 spheroids per well (300-500 μm diameter). 20% 02 and 5% CO2. 96 well plate format. Endpoint: fluorescent immunostain pDNA-PK ser2056 and image on microscope. Analysis: determine EC50 concentrations that decreases pDNA-PK induction by 50% after irradiation.
Multicellular tumour spheroids were used to determine potency of test compounds in a 3D tissue environment using inhibition of pDNA-PK induction following radiation or cell survival as the endpoint. For the pDNA-PK endpoint HCT116 or FaDU tumour spheroids were grown to approximately 0.5 mm in diameter and irradiated with 20 Gy in combination with inhibitor test compounds to determine their potency. Experiments were carried out in 96 well plates containing 0.7 mls of MEM media containing 10% FBS and 10 mM glucose under 20% O2 & 5% CO2 at 37° C. Following dilution of compounds 1:1000 from DMSO stocks, compounds were serially diluted from 10 μM down to 3.5 nM and 5-10 spheroids added. 96 well plates were constantly stirred to avoid spheroids settling during the course of the experiment. The inhibitor concentration for 50% reduction in pDNA-PK induction (EC50) was determined via immunohistochemical staining in spheroid cryosections taken 2 hours following radiation using anti-pDNA-PK (ser 2056) and fixed immediately in formalin following sectioning. For cell survival endpoint 8 Gy radiation was used and, 3 hours following radiation, spheroids were dissociated, counted and plated for colony forming endpoint. Data presented in the table compound potency as EC50 [μM].

A short description of data set [4]: Microsomal Stability Assay, mouse liver microsomes. The format is in vitro ADME. As to the method:
Samples were then mixed and centrifuged. Supernatants were used for HPLC-MS/MS analysis. […] Peak areas corresponding to the test compound were recorded.
(In general: Microsomes from liver hold many membrane-bound enzymes, among them those of drug oxidation.)

Regarding `O=C(O)c1cnc2cc(N3CCOCC3)nc(O[C@H]3CC[C@@H](Nc4ncccn4)CC3)c2c1` [Compound 183, 7-morpholino-5-(((1s,4s)-4-(pyrimidin-2-ylamino)cyclohexyl)oxy)-1,6-naphthyridine-3-carboxylic acid], the 50% inhibitory concentration (IC50) is below 0.5 nM on DNA-PK and 1000 to 10000 nM in data set [1]. In addition, the EC50 was in the range of 1000 to 10000 nM in data set [2] (HCT-116, 2 h, spheroids, Example 8, read-out: Cell line: HCT116 Immunohistochemical endpoint pDNA-PK inhibition EC50); 1000 to 10000 nM in data set [2] (HCT-116, 2 hours following radiation, Example 9 Study 2, read-out: Spheroid Cell line: HCT116 Immunohistochemical endpoint pDNA-PK inhibition EC50); 1000 to 10000 nM in data set [2] (HCT-116, Spheroid, Cell Line: HCT115 (so in the source), 2 hours following radiation, Example 7, read-out: EC50, Immunohistochemical endpoint, pDNA-PK inhibition); 1000 to 10000 nM in data set [3] (2 hours following radiation, 20% O2, Example 9 Study 2, read-out: Spheroid Cell line: FaDU Immunohistochemical endpoint pDNA-PK inhibition EC50); 1000 to 10000 nM in data set [3] (2 h, spheroids, 20% O2, Example 8, read-out: Cell line: FaDU Immunohistochemical endpoint pDNA-PK inhibition EC50). This compound also returned a microsomal CLint at 0.1 uM in data set [4] (male, CD-1, pH 7.4, mouse liver microsomes 0.1 mg/mL, 0.1 uM compound) below 116 µL/min/mg. Moreover, in data set [4] (mouse liver microsomes, 60 min), the “Microsomal Stability Mouse % rem. 60 min” value is listed as “H (% remaining = 75-100%)”.

The values are drawn from patent US20240239790A1, “7-Morpholino-1,6-Naphthyridin-5-yl Derivatives and Pharmaceutical Compositions Thereof Useful as DNA-PK Inhibitor” (adMare Therapeutics Society, priority 2021, published 2024).
